# Laboratory results published in patent US10426773B2, “Systems pharmacology for treating ocular disorders” (Case Western Reserve Univeristy, priority 2011, dated 2019).
# How the values were obtained:
# [1] = test system: ROS generation in photoreceptors of Abca4−/−Rdh8−/− mice; assay: In vivo detection of ROS (DHE probe) in retinas of light-exposed Abca4−/−Rdh8−/− mice; design: species or system mouse; conditions: Example 3; DOX 10 mg/kg, GUB 2.0 mg/kg, SQ 0.5 mg/kg ip 30 min prior to light
# Method: The ROS probe, DHE, at a dose of 20 mg/kg body weight was administered to Abca4^−/−Rdh8^−/− mice via intraperitoneal injection 30 min prior to light exposure. Eye cups obtained after removing the cornea, lens and vitreous body from enucleated eye globes 3 h post light illumination were fixed in 4% paraformaldehyde. Cryosections were prepared from fixed eye cups and cut at 12 am thickness for microscopic assessment of ROS signal fluorescence in the retina.
# The ROS probe, DHE, at a dose of 20 mg/kg body weight in 25 μl of DMSO, was administered to Abca4^−/−Rdh8^−/− mice via intraperitoneal injection 1 h prior to light exposure. Eye cups obtained after removing the cornea, lens, and vitreous body from enucleated eye globes 3 h post light illumination were fixed in 4% paraformaldehyde. Cryosections were prepared from fixed eye cups and cut at 12-am thickness for microscopic assessment of ROS fluorescence in the retina with ImageJ software (National Institutes of Health).
# BALB/c mice = assay: Light-induced retinal degeneration in BALB/c mice, SLO autofluorescence imaging; type: in vivo, mouse; conditions: DOX 10, GUB 2.0, SQ 0.5 mg/kg, 7 days after light
# Method: SLO (Heidelberg Engineering) was carried out for in vivo whole fundus imaging of mouse retinas. […] Numbers of autofluorescent spots were counted and subjected to statistical analyses as described below.
# These drugs were administered to 4-week-old BALB/c mice by intraperitoneal injection 30 min prior to white light exposure at 10,000 lux for 1 h. Retinal morphology was assessed 7 days after light exposure by OCT imaging and histological examination.
smiles,measurement,setting,value
COc1cc2nc(N3CCN(C(=O)C4COc5ccccc5O4)CC3)nc(N)c2cc1OC.CS(=O)(=O)O (centres unmarked) [Doxazosin],ROS generation in photoreceptors (DHE signal),[1],decreased
same,autofluorescent spots by SLO,BALB/c mice,prevented
